Laboratory results: ChEMBL document CHEMBL3124876, “A perylene derivative regulates HIF-1α and Stat3 signaling pathways” (Bioorg Med Chem, 2014)
Activity calls are given as the source filed them. No cut-off for these calls is given here.

Tests used:
MDA-MB-468 [1] = test: Induction of apoptosis in human MDA-MB-468 cells assessed as reduction in cell viability at 8 uM after 12 to 48 hrs by MTT assay; assay type: functional, cell-based
[2] = target: Aryl hydrocarbon receptor nuclear translocator (Homo sapiens) (UniProt P27540); test: Inhibition of HIF-1 beta in human PC3 cells after 18 hrs by Western blotting analysis in hypoxia condition; assay type: cell-based; conditions: PC-3
Aryl hydrocarbon receptor nuclear translocator (Homo sapiens), sequence (P27540 whole entry): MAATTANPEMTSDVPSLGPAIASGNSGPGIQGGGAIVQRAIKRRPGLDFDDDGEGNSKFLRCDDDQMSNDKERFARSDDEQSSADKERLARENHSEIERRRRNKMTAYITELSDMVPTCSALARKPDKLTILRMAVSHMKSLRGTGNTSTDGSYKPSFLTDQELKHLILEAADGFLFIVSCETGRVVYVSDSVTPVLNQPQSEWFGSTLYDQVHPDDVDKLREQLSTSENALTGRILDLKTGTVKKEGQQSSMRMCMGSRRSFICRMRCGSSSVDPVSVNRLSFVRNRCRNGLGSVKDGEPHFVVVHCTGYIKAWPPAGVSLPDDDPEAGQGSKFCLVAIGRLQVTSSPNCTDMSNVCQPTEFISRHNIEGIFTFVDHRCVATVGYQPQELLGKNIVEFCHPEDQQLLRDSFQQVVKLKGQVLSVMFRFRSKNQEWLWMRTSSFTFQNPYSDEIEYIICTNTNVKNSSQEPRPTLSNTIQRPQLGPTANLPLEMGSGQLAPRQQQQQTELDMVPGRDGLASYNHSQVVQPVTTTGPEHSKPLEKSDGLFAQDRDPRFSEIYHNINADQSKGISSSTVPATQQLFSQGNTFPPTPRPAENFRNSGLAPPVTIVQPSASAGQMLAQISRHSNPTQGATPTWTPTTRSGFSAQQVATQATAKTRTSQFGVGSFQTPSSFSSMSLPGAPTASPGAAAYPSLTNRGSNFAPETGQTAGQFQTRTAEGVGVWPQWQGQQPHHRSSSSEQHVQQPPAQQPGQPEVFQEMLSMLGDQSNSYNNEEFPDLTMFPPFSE

[3] = target: Hypoxia-inducible factor 1-alpha (Homo sapiens) (UniProt Q16665); test: Inhibition of HIF-1 alpha in human MDA-MB-468 cells assessed as proteasomal degradation at 4 to 7 uM after 18 hrs by immunoblotting analysis in hypoxia condition; assay type: cell-based
Hypoxia-inducible factor 1-alpha (Homo sapiens), sequence (Q16665 whole entry, looked up, the tested form may be a part): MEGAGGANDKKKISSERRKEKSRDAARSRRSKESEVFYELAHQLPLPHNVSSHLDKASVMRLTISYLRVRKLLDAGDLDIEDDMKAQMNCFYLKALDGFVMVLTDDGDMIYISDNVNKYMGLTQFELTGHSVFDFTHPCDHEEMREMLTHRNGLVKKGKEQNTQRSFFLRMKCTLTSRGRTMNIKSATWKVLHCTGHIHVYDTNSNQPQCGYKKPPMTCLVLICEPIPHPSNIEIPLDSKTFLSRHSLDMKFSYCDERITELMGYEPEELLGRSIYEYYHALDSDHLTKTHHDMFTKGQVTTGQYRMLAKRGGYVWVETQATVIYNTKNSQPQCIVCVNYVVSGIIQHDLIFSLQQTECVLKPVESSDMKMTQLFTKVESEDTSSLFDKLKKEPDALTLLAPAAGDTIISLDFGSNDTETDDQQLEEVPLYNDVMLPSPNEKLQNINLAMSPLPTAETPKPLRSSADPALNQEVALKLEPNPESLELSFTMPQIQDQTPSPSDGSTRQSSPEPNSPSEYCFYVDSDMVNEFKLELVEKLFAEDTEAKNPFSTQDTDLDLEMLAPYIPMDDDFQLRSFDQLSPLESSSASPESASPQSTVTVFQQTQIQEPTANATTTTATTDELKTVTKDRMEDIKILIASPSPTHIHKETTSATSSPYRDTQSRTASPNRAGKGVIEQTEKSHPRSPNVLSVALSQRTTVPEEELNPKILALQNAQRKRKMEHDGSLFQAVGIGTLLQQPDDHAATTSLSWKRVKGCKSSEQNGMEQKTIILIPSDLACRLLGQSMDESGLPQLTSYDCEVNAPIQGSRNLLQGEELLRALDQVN

[4] = target: Signal transducer and activator of transcription 3 (Homo sapiens) (UniProt P40763); conditions: PANC-1, 0.5 to 20 uM
Description: Inhibition of Stat3 phosphorylation in human PANC1 cells assessed as inhibition of Bcl2 expression at 0.5 to 20 uM by Western blotting analysis in hypoxia condition

[5] = target: Hypoxia-inducible factor 1-alpha (Homo sapiens) (UniProt Q16665); test: Inhibition of HIF-1 alpha in human PANC1 cells after 18 hrs by Western blotting analysis in hypoxia condition in presence of T40214; assay type: cell-based; conditions: PANC-1
[6] = target: Histone acetyltransferase p300 (Homo sapiens) (UniProt Q09472); test: Inhibition of P300 in human MDA-MB-231 cells at 1 to 20 uM by Western blotting analysis; assay type: cell-based
Histone acetyltransferase p300 (Homo sapiens), sequence (Q09472 whole entry): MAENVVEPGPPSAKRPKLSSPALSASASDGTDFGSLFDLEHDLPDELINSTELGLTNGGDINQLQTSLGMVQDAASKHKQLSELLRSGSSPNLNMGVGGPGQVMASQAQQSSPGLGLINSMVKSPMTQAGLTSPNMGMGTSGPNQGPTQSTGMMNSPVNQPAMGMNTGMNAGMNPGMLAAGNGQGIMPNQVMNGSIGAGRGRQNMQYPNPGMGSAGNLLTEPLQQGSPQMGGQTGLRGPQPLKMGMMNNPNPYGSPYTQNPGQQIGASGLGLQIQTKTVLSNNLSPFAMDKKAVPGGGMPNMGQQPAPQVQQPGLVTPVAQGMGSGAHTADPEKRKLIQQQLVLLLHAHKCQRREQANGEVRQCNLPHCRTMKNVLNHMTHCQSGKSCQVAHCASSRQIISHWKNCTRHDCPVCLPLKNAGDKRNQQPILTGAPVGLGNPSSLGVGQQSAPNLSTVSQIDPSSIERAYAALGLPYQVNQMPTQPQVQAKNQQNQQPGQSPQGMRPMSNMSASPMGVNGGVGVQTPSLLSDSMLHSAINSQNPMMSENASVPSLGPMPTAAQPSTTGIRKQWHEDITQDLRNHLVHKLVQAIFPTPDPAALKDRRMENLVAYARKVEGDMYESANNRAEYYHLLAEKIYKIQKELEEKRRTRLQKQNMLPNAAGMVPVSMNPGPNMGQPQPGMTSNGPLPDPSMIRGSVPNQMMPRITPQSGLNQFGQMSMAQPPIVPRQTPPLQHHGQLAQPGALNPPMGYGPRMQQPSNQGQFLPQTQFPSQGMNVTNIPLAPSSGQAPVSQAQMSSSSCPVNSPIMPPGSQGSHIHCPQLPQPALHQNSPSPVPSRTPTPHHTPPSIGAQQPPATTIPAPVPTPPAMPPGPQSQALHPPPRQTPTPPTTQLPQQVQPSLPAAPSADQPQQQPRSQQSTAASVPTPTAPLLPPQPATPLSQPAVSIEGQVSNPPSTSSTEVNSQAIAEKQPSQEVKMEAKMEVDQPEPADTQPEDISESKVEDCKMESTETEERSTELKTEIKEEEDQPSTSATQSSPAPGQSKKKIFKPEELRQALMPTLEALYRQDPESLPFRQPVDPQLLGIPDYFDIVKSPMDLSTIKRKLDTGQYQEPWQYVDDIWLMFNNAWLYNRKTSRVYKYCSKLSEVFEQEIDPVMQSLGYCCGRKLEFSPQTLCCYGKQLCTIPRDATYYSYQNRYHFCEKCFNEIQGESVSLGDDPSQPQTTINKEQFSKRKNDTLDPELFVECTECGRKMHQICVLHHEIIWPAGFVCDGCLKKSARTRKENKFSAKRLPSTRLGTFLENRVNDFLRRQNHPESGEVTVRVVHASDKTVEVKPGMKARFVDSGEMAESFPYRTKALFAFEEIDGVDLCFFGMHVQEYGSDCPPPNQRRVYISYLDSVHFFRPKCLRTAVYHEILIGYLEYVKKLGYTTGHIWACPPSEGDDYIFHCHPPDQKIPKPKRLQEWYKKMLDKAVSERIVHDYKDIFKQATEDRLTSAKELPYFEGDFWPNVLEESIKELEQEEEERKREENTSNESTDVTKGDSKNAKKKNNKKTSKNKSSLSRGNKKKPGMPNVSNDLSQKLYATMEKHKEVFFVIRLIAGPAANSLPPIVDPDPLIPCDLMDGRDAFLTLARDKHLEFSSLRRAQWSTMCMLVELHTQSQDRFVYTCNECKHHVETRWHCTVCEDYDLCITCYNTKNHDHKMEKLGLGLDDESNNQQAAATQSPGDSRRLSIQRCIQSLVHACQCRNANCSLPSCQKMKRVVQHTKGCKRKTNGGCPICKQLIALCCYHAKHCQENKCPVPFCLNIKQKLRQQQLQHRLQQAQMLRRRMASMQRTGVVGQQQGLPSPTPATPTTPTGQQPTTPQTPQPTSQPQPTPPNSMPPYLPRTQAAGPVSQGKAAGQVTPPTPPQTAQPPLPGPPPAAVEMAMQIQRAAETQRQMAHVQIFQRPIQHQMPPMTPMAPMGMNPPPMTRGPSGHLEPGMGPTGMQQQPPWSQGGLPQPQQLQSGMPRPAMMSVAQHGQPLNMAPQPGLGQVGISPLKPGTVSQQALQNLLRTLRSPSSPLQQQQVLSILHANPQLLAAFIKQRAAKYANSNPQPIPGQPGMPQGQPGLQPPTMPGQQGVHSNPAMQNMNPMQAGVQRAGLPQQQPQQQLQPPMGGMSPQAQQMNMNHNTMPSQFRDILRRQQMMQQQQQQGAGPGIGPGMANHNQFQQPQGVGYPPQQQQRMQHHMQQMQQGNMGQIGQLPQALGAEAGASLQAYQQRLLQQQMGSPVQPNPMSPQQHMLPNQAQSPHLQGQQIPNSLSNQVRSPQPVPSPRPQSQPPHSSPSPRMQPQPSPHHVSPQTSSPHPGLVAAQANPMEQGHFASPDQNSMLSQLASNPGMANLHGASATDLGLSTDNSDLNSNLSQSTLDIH

[7] = target: Signal transducer and activator of transcription 3 (Homo sapiens) (UniProt P40763); conditions: MDA-MB-468, 1 to 20 uM
Description: Inhibition of Stat3 phosphorylation in human MDA-MB-468 cells assessed as inhibition of Bcl2 expression at 1 to 20 uM by Western blotting analysis in normoxia condition

[8] = target: Tyrosine-protein kinase JAK2 (Homo sapiens) (UniProt O60674); test: Inhibition of JAK2 (unknown origin) assessed as total JAK2 level at 10 uM after 6 hrs by cell-based Western blotting analysis
[9] = target: Hypoxia-inducible factor 1-alpha (Homo sapiens) (UniProt Q16665); test: Inhibition of HIF-1 alpha in human PANC1 cells assessed as inhibition of Bcl2 expression at 1 to 20 uM by Western blotting analysis in hypoxia condition; assay type: cell-based; conditions: PANC-1
[10] = target: Hypoxia-inducible factor 1-alpha (Homo sapiens) (UniProt Q16665); test: Inhibition of GST-tagged HIF-1 alpha (531 to 826) (unknown origin) expressed in Escherichia coli BL21(DE3) assessed as inhibition of GST-tagged HIF-1 alpha/p300 interaction at 5 ug after overnight incubation by pull down assay in hypoxia condition
PANC-1 [11] = test: Inhibition of ERK in human PANC1 cells at 1 to 20 uM by Western blotting analysis; assay type: cell-based
Mus musculus = test: Toxicity in Balb nu/nu mouse assessed as change in body weight at 2 mg/kg, ip administered every other day for 10 days measured after 19 days; assay type: organism-based; set-up: dose 2 mg/kg, route intraperitoneal; conditions: in vivo, 456 h
[12] = target: Aryl hydrocarbon receptor nuclear translocator (Homo sapiens) (UniProt P27540); test: Inhibition of HIF-1 beta in human MDA-MB-231 cells at 1 to 20 uM by Western blotting analysis; assay type: cell-based
[13] = target: T1, Signal transducer and activator of transcription 1-alpha/beta (Homo sapiens) (UniProt P42224); test: Inhibition of Stat1 phosphorylation in human MDA-MB-231 cells at 0.05 to 10 uM by Western blotting analysis; assay type: cell-based
T1 sequence (whole entry): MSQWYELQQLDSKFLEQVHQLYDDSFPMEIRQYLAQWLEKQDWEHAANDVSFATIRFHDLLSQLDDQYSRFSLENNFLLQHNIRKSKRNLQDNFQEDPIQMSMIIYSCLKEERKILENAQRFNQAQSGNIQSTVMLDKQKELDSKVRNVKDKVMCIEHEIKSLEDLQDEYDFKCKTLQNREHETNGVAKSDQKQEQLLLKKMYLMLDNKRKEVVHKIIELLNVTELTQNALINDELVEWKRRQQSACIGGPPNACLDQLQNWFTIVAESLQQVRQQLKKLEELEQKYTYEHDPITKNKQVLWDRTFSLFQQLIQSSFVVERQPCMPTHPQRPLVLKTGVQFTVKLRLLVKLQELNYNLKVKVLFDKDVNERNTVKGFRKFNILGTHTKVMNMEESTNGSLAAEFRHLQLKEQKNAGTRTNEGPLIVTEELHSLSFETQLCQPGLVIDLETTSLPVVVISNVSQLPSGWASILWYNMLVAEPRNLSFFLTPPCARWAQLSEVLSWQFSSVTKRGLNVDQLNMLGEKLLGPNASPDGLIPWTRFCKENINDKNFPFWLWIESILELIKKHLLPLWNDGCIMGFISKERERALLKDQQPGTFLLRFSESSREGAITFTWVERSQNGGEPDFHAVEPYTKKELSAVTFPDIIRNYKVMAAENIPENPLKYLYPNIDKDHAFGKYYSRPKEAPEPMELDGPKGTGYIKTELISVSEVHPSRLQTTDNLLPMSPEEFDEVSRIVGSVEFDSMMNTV

[14] = target: Proto-oncogene tyrosine-protein kinase Src (Homo sapiens) (UniProt P12931); test: Inhibition of Src kinase (unknown origin) assessed as total SRC level at 10 uM after 6 hrs by cell-based Western blotting analysis
Proto-oncogene tyrosine-protein kinase Src (Homo sapiens), sequence (P12931 2-536 limits assumed): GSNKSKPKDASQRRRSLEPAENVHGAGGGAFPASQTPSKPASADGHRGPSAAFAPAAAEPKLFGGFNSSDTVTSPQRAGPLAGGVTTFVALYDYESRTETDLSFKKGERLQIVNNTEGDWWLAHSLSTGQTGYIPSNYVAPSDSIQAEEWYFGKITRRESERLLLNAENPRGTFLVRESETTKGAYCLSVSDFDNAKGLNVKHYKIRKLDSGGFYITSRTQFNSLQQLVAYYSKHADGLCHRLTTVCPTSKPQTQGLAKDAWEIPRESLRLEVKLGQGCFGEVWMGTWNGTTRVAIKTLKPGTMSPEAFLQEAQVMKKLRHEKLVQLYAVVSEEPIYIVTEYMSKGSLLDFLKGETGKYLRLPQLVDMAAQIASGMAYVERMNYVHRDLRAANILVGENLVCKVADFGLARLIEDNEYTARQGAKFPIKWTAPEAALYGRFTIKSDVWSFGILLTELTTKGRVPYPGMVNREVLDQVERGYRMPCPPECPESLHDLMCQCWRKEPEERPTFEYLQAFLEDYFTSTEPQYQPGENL

MDA-MB-468 [15] = test: Inhibition of HIF-1 in human MDA-MB-468 cells assessed as reduction of GLUT1 mRNA expression at 5 to 10 uM by RT-PCR analysis in hypoxia condition; assay type: cell-based
PANC-1 [16] = test: Inhibition of ERK phosphorylation in human PANC1 cells at 1 to 20 uM by Western blotting analysis; assay type: cell-based
[17] = target: Proto-oncogene tyrosine-protein kinase Src (Homo sapiens) (UniProt P12931); test: Inhibition of Src kinase (unknown origin) phosphorylation at 10 uM after 6 hrs by cell-based Western blotting analysis
[18] = target: RAC-alpha serine/threonine-protein kinase (Homo sapiens) (UniProt P31749); test: Inhibition of AKT phosphorylation in human PANC1 cells at 1 to 20 uM by Western blotting analysis; assay type: cell-based; conditions: PANC-1
RAC-alpha serine/threonine-protein kinase (Homo sapiens), sequence (P31749 whole entry): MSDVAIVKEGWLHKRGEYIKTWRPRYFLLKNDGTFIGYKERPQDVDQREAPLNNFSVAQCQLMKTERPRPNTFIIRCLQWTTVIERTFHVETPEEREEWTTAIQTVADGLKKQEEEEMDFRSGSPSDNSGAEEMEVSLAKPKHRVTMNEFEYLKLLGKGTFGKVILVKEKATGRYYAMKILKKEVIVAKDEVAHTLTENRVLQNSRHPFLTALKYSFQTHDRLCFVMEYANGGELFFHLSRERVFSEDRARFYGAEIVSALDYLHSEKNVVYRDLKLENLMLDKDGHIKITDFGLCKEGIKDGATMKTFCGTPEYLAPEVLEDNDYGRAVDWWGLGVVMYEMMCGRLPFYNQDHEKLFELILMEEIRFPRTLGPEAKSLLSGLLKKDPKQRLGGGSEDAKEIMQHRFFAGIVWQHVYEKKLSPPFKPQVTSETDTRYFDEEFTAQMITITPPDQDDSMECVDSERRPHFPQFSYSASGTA

MCF7 = test: Induction of apoptosis in human MCF7 cells assessed as reduction in cell viability at 10 uM after 12 to 48 hrs by MTT assay; assay type: functional, cell-based
[19] = target: Endothelial PAS domain-containing protein 1 (Homo sapiens) (UniProt Q99814); test: Inhibition of HIF-2 alpha in human MDA-MB-468 cells at 1 to 20 uM by Western blotting analysis in hypoxia condition; assay type: cell-based
[20] = target: Histone acetyltransferase p300 (Homo sapiens) (UniProt Q09472); test: Inhibition of P300 in human PC3 cells after 18 hrs by Western blotting analysis in hypoxia condition; assay type: cell-based; conditions: PC-3
MDA-MB-468 [21] = test: Reduction of total Stat3 level in human MDA-MB-468 cells at 1 to 20 uM by Western blotting analysis; assay type: functional, cell-based
[22] = Antitumor activity against human PANC1 cells xenografted in Balb nu/nu mouse assessed as mean tumor volume at 2 mg/kg, ip administered every other day for 10 days measured after 19 days (reference value: 754 mm'3); assay type: functional, PANC-1; conditions: route intraperitoneal
[23] = target: Hypoxia-inducible factor 1-alpha (Homo sapiens) (UniProt Q16665); test: Inhibition of HIF-1 alpha in human OVCAR3 cells assessed as inhibition of Bcl2 expression at 1 to 20 uM by Western blotting analysis in normoxia condition; assay type: cell-based; conditions: OVCAR-3
[24] = target: Endothelial PAS domain-containing protein 1 (Homo sapiens) (UniProt Q99814); test: Inhibition of HIF-2 alpha in human OVCAR3 cells at 1 to 20 uM by Western blotting analysis in hypoxia condition; assay type: cell-based; conditions: OVCAR-3
[25] = Antitumor activity against human PANC1 cells xenografted in Balb nu/nu mouse assessed as mean tumor weight at 2 mg/kg, ip administered every other day for 10 days measured after 19 days (reference value: 0.5 +/- 0.05 g); assay type: functional, PANC-1; conditions: route intraperitoneal

inhibition [2]: inactive
inhibition [3]: Active
inhibition [4]: Active
inhibition [5]: Active
inhibition [6]: inactive
inhibition [7]: Active
inhibition [8]: inactive
inhibition [9]: Active
inhibition [10]: Active
inhibition [12]: inactive
inhibition [13]: inactive
inhibition [14]: inactive
inhibition [17]: inactive
inhibition [18]: inactive
inhibition [19]: Active
inhibition [20]: inactive
inhibition [23]: Active
inhibition [24]: Active
Compound: CN(C)CCCN1C(=O)c2ccc3c4ccc5c6c(ccc(c7ccc(c2c37)C1=O)c64)C(=O)N(CCCN(C)C)C5=O
Activity (MDA-MB-468 [1]): Active
inhibition (PANC-1 [11]): inactive
Activity (Mus musculus): Non-toxic
inhibition (MDA-MB-468 [15]): Active
inhibition (PANC-1 [16]): inactive
Activity (MCF7): Active
Activity (MDA-MB-468 [21]): Active
Activity [22]: 75 mm3
Activity [25]: 0.06 g
